Test results from US20240417428A1, “POLYPEPTIDE FOR INHIBITING TRPM8 AND USE THEREOF” (ZHEJIANG UNIVERSITY, priority 2021, published 2024).
Where a SMILES comes first, the peptide text is derived from it.

Columns and labels:
Nav1.7 = target: T1, Nav1.7 (Homo sapiens, UniProt Q15858); test: Electrophysiological recording of Nav1.7 sodium current; format: cell-based
T1 construct: expressed in transfected cells; host or cells: HEK293T
Method: HEK293T cells were cultured in Dulbecco's modified Eagle culture medium under a 37° C., 5% CO2 environment, 10% fetal bovine serum, penicillin (100 U/mL), and streptomycin ([…]) was needed to add into the culture medium. Transient transfection was conducted by using Lipo 2000 (Invitrogen) transfection kit and following the instruction manual.
Electrophysiological experiment recordings were performed on the cells within 24˜48 h of transient transfections. Specifically, single channel electrophysiological recordings were performed within 8 h after transfection.
Measurement of the cell currents was respectively performed in the whole-cell recording mode, inside-out recording mode or outside-out recording mode with a HEKA EPC10 amplifier. In the whole cell electrophysiological recordings, glass microelectrodes made of borosilicate material were fire-polished to a original electrode resistance of about 3-6 MΩ. Serial resistance was compensated by 60%. The whole cell electrophysiological recordings were performed at ±80 mV. For single channel electrophysiological recordings, glass microelectrodes were fire-polished to a higher resistance of 6-8 MΩ2. Current signal was sampled at 10 kHz and filtered at 2.9 kHz. Membrane potential of the cell membrane would be clamped at +80 mV. All electrophysiological recordings were performed at room temperature (22° C.) (the maximum variation is 1° C.). […]

[1] = system: CCI-induced cold allodynia; test: Chronic constriction injury (CCI) model of neuropathic pain: cold allodynia; format: in vivo; settings: CCI rats
Text: Male Sprague-Dawley rats (purchased from Shanghai SLAC Laboratory Animal Co., Ltd. at the beginning of the experiment for 7 weeks, n=7-10/treatment) were used. CCI status was formed according to the method of Bennett G J and Xie Y K (Pain 1988, 33:87-107). Rats were anesthetized by intraperitoneal injection of sodium pentobarbital. The left common sciatic nerve was made to be exposed in the middle of the thigh in a state deprived of adherent tissue, and 4-0 silk thread (Ethicon Inc.) was utilized around it and four passes were loosely ligated at approximately 1-mm intervals. Sham surgery was performed in the same manner except for sciatic nerve ligation. After 1-2 weeks after CCI surgery, as documented in Tanimoto-Mori Setal. (BehavPharmacol., 19:85-90, 2008), The cold allodynia was evaluated by using a cooling plate (LHP-1700CP, TECA) with a temperature controller (Mode 13300-0, CAL Controls Inc.). The animals were acclimatized to a device consisting of a transparent acrylic box (10×12×12 cm) on a stainless steel plate (15×33 cm). The surface of the cooling plate was maintained at 10° C., and the temperature of the plate was continuously monitored with an accuracy of 0.1° C. To perform the experiment, rats were loaded on the cooling plate and the polypeptide DeC-1.2 was administered before and after a cutoff value of 120 seconds, and the paw withdrawal latency (PWL) was measured. […]

[2] = system: CCI-induced static allodynia; test: Chronic constriction injury (CCI) model of neuropathic pain: static allodynia; format: in vivo; settings: CCI rats
Text: Male Sprague Dawley rats (purchased from Shanghai SLAC Laboratory Animals, LLC, 7 weeks old at the beginning of the experiment, n=7-10 per treatment) were used. CCI status was formed according to the method of Bennett G J and Xie Y K (Pain 1988, 33:87-107). Rats were anesthetized by intraperitoneal injection of sodium pentobarbital. The left common sciatic nerve was made to be exposed in the middle of the thigh in a state deprived of adherent tissue, and 4-0 silk thread (Ethicon Inc.) was utilized around it and four passes were loosely ligated at intervals of approximately 1 mm. Sham surgery was performed in the same manner except for sciatic nerve ligation. CCI surgery was performed after 2-3 weeks as described in Field M J et al. (Pain 1999, 83:303-311) documented, static allodynia was evaluated by Von Frey Hairs (VFH). Before starting the experiment, the experimental animals were acclimatized to the grid bottom cage. […] Each VFH was pressed against the phasic paw for 6 seconds, or until a withdrawal response occurred. When one withdrawal response occurred, the experiment was repeated by pressing the VFH at a weaker pressure until no withdrawal response occurred. The minimum pressure required to induce a response was recorded as a withdrawal paw threshold (PWT). If the experimental animal responded below an innocuous 1.4 g VFH, it was determined to be in static allodynia. […]

T1 sequence (Q15858 whole entry): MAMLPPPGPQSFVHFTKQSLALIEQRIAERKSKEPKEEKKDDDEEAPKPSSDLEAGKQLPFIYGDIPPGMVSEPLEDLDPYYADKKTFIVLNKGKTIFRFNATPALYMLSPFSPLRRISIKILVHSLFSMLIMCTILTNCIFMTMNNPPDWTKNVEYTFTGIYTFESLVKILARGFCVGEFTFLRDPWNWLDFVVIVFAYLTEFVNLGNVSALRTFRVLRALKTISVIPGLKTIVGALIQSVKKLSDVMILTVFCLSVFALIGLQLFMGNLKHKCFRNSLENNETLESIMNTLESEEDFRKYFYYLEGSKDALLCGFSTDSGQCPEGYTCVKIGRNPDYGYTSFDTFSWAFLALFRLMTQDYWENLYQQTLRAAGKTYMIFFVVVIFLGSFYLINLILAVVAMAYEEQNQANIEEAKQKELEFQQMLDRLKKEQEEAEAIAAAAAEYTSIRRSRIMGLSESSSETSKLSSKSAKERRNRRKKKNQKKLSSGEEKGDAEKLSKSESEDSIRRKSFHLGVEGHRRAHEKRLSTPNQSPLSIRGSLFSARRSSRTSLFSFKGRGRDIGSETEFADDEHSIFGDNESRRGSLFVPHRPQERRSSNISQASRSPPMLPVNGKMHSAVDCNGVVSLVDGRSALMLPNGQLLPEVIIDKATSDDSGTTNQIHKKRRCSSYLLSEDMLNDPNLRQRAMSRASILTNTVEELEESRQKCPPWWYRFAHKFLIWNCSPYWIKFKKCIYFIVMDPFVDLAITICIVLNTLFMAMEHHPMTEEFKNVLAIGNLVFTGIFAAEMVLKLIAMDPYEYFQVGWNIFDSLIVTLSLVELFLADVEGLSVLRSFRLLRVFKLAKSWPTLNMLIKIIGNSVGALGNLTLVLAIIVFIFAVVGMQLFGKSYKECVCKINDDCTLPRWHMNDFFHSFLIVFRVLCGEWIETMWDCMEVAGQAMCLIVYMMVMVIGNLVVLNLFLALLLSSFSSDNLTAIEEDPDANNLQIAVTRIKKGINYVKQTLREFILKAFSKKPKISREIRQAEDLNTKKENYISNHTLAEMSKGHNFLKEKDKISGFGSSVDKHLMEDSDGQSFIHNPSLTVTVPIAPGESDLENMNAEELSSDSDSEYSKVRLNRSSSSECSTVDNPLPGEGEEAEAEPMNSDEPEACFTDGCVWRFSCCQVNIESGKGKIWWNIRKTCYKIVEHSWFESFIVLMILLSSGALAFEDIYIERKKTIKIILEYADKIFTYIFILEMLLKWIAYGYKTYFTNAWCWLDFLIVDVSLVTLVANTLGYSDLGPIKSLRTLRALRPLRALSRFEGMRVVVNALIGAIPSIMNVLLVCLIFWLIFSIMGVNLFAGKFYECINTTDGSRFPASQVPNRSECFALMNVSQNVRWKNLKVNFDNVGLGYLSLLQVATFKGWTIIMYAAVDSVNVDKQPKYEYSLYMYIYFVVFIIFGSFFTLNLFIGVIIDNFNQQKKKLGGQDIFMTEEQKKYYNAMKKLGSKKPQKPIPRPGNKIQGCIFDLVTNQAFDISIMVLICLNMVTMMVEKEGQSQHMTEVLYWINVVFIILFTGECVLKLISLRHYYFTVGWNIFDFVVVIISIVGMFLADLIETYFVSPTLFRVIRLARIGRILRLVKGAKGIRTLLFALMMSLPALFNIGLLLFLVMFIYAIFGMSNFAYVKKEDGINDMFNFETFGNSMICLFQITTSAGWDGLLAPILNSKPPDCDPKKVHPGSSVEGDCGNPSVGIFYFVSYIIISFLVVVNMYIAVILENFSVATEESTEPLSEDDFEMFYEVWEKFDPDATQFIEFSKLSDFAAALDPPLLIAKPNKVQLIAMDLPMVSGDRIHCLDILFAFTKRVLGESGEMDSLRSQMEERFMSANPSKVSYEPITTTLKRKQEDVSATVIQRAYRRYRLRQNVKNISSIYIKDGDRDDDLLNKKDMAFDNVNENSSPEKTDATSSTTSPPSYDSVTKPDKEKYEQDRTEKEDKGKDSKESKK

C[C@@H]1NC(=O)[C@H](CCCNC(=N)N)NC(=O)[C@H](CC(=O)O)NC(=O)[C@H](CCCNC(=N)N)NC(=O)[C@H](CCCNC(=N)N)NC(=O)[C@@H](N)CSSC[C@@H](C(=O)O)NC(=O)[C@H](CCCNC(=N)N)NC(=O)[C@H](CCC(N)=O)NC(=O)[C@H](CCCNC(=N)N)NC(=O)[C@H](Cc2ccc(O)cc2)NC(=O)[C@H](Cc2c[nH]cn2)NC(=O)[C@H](CCCNC(=N)N)NC1=O [DeC-1.2, CRRDRARHYRQRC] (HELM PEPTIDE1{C.R.R.D.R.A.R.H.Y.R.Q.R.C}$PEPTIDE1,PEPTIDE1,1:R3-13:R3$$$V2.0; N-terminus and C-terminus assumed)
IC50 (Nav1.7): > 100 µM | inhibition of Nav channels (Nav1.7; Nav1.7): none of the TRP channels and Nav channels were inhibited | activity against cold allodynia (paw withdrawal latency, 10° C. cooling plate) [1]: exhibited strong activity | activity against static allodynia (von Frey hairs) [2]: exhibited strong activity
